Assay results published in PubChem BioAssay (NCI).
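Following 48 hours of exposure in 96-well plates, responses at five concentrations were used to interpolate endpoints linearly. GI50 is the concentration that inhibits growth by half. TGI: concentration producing complete growth inhibition.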 Non-standard residues stand in square brackets, D forms with d. Residues, ends and D or L forms follow the SMILES beside them. *: point of attachment. ONb = O=[N+]([O-])c1ccc(CO*)cc1; AllylGly = C=CC[CH](N)C(=O)O; Boc = CC(C)(C)OC(=O)*

What was measured:
Test in all cases: growth of human tumour cells (NCI), 48 h
[1] = test system: SW-620 colon
[2] = test system: SF-295 CNS
[3] = test system: MOLT-4 leukemia
[4] = test system: HT29 colon
[5] = test system: NCI-H23 lung
[6] = test system: TK-10 renal
[7] = test system: HOP-62 NSCLC
[8] = test system: NCI-H522 lung
[9] = test system: ACHN renal
[10] = test system: RPMI-8226 leukemia

Cn1c(=O)nc2n(-c3ccc(Cl)cc3)c3ccc(Cl)cc3nc-2c1=O
TGI [1]: 19.2 µM
TGI [2]: 19 µM
TGI [3]: 65.7 µM
TGI [4]: 59.2 µM
TGI [5]: 8.65 µM
TGI [6]: 53.6 µM
TGI [7]: 49.5 µM
TGI [8]: 21.3 µM

Nn1c(-c2ccccc2)nc2ccc(Br)cc2c1=O
TGI [1]: > 100 µM
TGI [2]: > 100 µM
TGI [3]: 50.5 µM
TGI [4]: > 100 µM
TGI [9]: > 100 µM
TGI [5]: > 100 µM
TGI [6]: > 100 µM
TGI [10]: > 100 µM
TGI [8]: > 100 µM

O=c1oc2cc(OS(=O)(=O)c3ccc(F)cc3)ccc2c2c1CCCCC2
GI50 [2]: > 100 µM
TGI [2]: > 100 µM
GI50 [3]: > 100 µM
TGI [3]: > 100 µM
GI50 [4]: 1.04 µM
TGI [4]: > 100 µM
GI50 [9]: > 100 µM
TGI [9]: > 100 µM
GI50 [5]: > 100 µM
TGI [5]: > 100 µM
GI50 [6]: > 100 µM
TGI [6]: > 100 µM
GI50 [10]: 3.7 µM
TGI [10]: > 100 µM
GI50 [7]: 45.1 µM
TGI [7]: > 100 µM

Cc1cc2c(c(C#N)c1C)NC(=O)CCC2=O
TGI [1]: > 100 µM
TGI [2]: > 100 µM
TGI [3]: > 100 µM
TGI [4]: > 100 µM
TGI [9]: > 100 µM
TGI [5]: > 100 µM
TGI [10]: > 100 µM
TGI [7]: > 100 µM

CN(C)c1cccc2c(S(=O)(=O)N[C@H]3CC[C@H]4[C@@H]5CCc6cc(O)ccc6[C@H]5CC[C@]34C)cccc12
GI50 [1]: 2.72 µM
TGI [1]: 14 µM
GI50 [2]: 1.02 µM
TGI [2]: 2.7 µM
GI50 [3]: 3.14 µM
TGI [3]: > 100 µM
GI50 [4]: 2.5 µM
TGI [4]: 5.45 µM
GI50 [9]: 3.1 µM
TGI [9]: 14.1 µM
GI50 [5]: 2.99 µM
TGI [5]: 22 µM
GI50 [6]: 3.2 µM
TGI [6]: 9.82 µM
GI50 [10]: 2.32 µM
TGI [10]: 7.8 µM
GI50 [7]: 3.97 µM
TGI [7]: 13.9 µM

COc1ccc(Cl)cc1Nc1nc(C(F)(F)F)ccc1C(=O)N/N=C/c1c(Cl)cccc1Cl
GI50 [2]: 3.34 µM
TGI [2]: 72.6 µM
GI50 [3]: 2.36 µM
TGI [3]: 10.7 µM
GI50 [4]: > 100 µM
TGI [4]: > 100 µM
GI50 [9]: 8.01 µM
TGI [9]: > 100 µM
GI50 [5]: 38.5 µM
TGI [5]: > 100 µM
GI50 [6]: 6.32 µM
TGI [6]: 50.8 µM
GI50 [7]: 1.35 µM
TGI [7]: > 100 µM
GI50 [8]: 13.3 µM
TGI [8]: > 100 µM

O=C1CC(O)C=C1Nc1ccc(Cl)cc1 (configuration not stated)
TGI [1]: > 100 µM
TGI [2]: > 100 µM
TGI [3]: > 100 µM
TGI [4]: > 100 µM
TGI [9]: > 100 µM
TGI [5]: > 100 µM
TGI [6]: > 100 µM
TGI [7]: > 100 µM
TGI [8]: 48.4 µM

C=CCC(NC(=O)OC(C)(C)C)C(=O)NC(CCC(=O)OCc1ccc([N+](=O)[O-])cc1)C(N)=O (configuration not stated) (Boc-[AllylGly]-Glu(ONb)-NH2; configuration not given here)
GI50 [1]: 95.9 µg/mL
GI50 [2]: 16.9 µg/mL
TGI [2]: 37.9 µg/mL
GI50 [9]: 18.1 µg/mL
TGI [9]: 33.3 µg/mL
GI50 [5]: 29.6 µg/mL
TGI [5]: 91.8 µg/mL
GI50 [6]: 34.3 µg/mL
GI50 [10]: 26.7 µg/mL
TGI [10]: 77.6 µg/mL
GI50 [8]: 28.1 µg/mL

Cc1c2c(nn1-c1ccc(S(=O)(=O)NC(=S)Nc3ccccc3)cc1)-c1ccccc1CC2
GI50 [1]: > 50 µM
TGI [1]: > 50 µM
GI50 [2]: > 50 µM
TGI [2]: > 50 µM
GI50 [3]: > 50 µM
TGI [3]: > 50 µM
GI50 [4]: > 50 µM
TGI [4]: > 50 µM
GI50 [9]: > 50 µM
TGI [9]: > 50 µM
GI50 [5]: 46.8 µM
TGI [5]: > 50 µM
GI50 [6]: 10 µM
TGI [6]: 46.9 µM
GI50 [10]: 15.5 µM
TGI [10]: 42.4 µM
GI50 [8]: 21.5 µM
TGI [8]: > 50 µM

COc1ccc2[nH]c3c(c2c1)CCN(C)CC3
TGI [1]: > 100 µM
TGI [2]: > 100 µM
TGI [3]: > 100 µM
TGI [4]: > 100 µM
TGI [9]: > 100 µM
TGI [5]: > 100 µM
TGI [6]: > 100 µM
TGI [10]: > 100 µM
TGI [7]: > 100 µM

COC(=O)C1CC2(CC3=C1CCCC3)OCCO2 (configuration not stated)
TGI [1]: > 100 µM
TGI [2]: > 100 µM
TGI [4]: > 100 µM
TGI [5]: > 100 µM
TGI [6]: > 100 µM
TGI [10]: > 100 µM
TGI [7]: > 100 µM
TGI [8]: > 100 µM

O=C(NNc1nc(Cl)nc(N2CCN(C(c3ccccc3)c3ccccc3)CC2)n1)c1ccccc1
GI50 [2]: 10.8 µM
TGI [2]: 23.1 µM
GI50 [3]: 1.66 µM
TGI [3]: 5.13 µM
GI50 [4]: 1.92 µM
TGI [4]: 4.07 µM
GI50 [9]: 1.75 µM
TGI [9]: 3.17 µM
GI50 [5]: 1.83 µM
TGI [5]: 3.64 µM
GI50 [6]: > 100 µM
TGI [6]: > 100 µM
GI50 [10]: 3.79 µM
TGI [10]: > 100 µM
GI50 [7]: 1.88 µM
TGI [7]: 4.04 µM

N#CCC(=O)Nc1cccc(C(F)(F)F)c1
TGI [1]: > 100 µM
TGI [2]: > 100 µM
TGI [3]: > 100 µM
TGI [4]: > 100 µM
TGI [9]: > 100 µM
TGI [5]: > 100 µM
TGI [6]: > 100 µM
TGI [7]: > 100 µM
TGI [8]: > 100 µM

N=C1C(c2nc(-c3ccc(Br)cc3)cs2)=C(O)CN1Cc1cccnc1
GI50 [1]: 4.75 µM
TGI [1]: 26.7 µM
GI50 [2]: 16.6 µM
TGI [2]: 81.3 µM
GI50 [3]: 4.39 µM
TGI [3]: 42.7 µM
GI50 [4]: 13.4 µM
TGI [4]: > 100 µM
GI50 [9]: 16.4 µM
TGI [9]: 98.8 µM
GI50 [5]: 22.5 µM
TGI [5]: > 100 µM
GI50 [6]: 2.23 µM
TGI [6]: 45.3 µM
GI50 [10]: 2.88 µM
TGI [10]: 76.5 µM
GI50 [7]: 17.1 µM
TGI [7]: > 100 µM

CC1=C(C(=O)Nc2c(C)cccc2C)C(c2ccc3c(c2)OCO3)C(C(=O)Nc2c(C)cccc2C)=C(C)N1
TGI [1]: 36.5 µM
TGI [2]: 32.7 µM
TGI [3]: 61.5 µM
TGI [4]: 30.2 µM
TGI [9]: 35.2 µM
TGI [5]: 29.8 µM
TGI [6]: 62.1 µM
TGI [7]: 44 µM
TGI [8]: 31.7 µM

CNC(P(=O)([O-])[O-])P(=O)([O-])[O-].N.N.[Pt+2]
GI50 [1]: > 100 µM
TGI [1]: > 100 µM
GI50 [2]: > 100 µM
TGI [2]: > 100 µM
GI50 [5]: > 100 µM
TGI [5]: > 100 µM
GI50 [6]: > 100 µM
TGI [6]: > 100 µM
GI50 [8]: > 100 µM
TGI [8]: > 100 µM

N#Cc1c(Sc2ccccc2N)cccc1Sc1ccccc1N
GI50 [1]: 79.8 µM
GI50 [2]: 84 µM
GI50 [3]: 22.2 µM
GI50 [4]: 63.4 µM
GI50 [9]: 35.2 µM
GI50 [5]: 59 µM
GI50 [10]: 28.8 µM
GI50 [8]: 51.7 µM

CCOc1cc2ncc(C#N)c(Nc3ccc(OCc4cccc(F)c4)c(Cl)c3)c2cc1NC(=O)CC1CCSS1 (configuration not stated)
GI50 [1]: > 25 µM
TGI [1]: > 25 µM
GI50 [2]: > 25 µM
TGI [2]: > 25 µM
GI50 [4]: 0.907 µM
TGI [4]: > 25 µM
GI50 [9]: 3.1 µM
TGI [9]: > 25 µM
GI50 [5]: 2.08 µM
TGI [5]: > 25 µM
GI50 [6]: 0.916 µM
TGI [6]: 6 µM
GI50 [10]: > 25 µM
TGI [10]: > 25 µM
TGI [7]: > 15.1 µM
GI50 [8]: > 6.9 µM
TGI [8]: > 25 µM
